This is an account of results in patent US20150352094A1, “USE OF FATTY ACID NIACIN CONJUGATES FOR TREATING DISEASES” (CATABASIS PHARMACEUTICALS, INC., priority 2013, published 2015).

The subject of one data set is Male C57BL/6 mice. As to the kind of experiment: Liver weight gain induced by Lomitapide 10 mg/kg in mice on high fat cholesterol diet. The format is in vivo. The source says:
The objective of this example is to determine if 1-8, a representative compound of the present invention, can abrogate the development of hepatic steatosis induced by oral administration of the MTP inhibitor Lomitapide for 7 days in normal mice.
Male C57BL/6 mice were acclimated to the high fat cholesterol diet (D13093001; 1% cholesterol, 15% cacao butter, 40.5% sucrose and 1% corn oil (Research Diets, Inc. New Brunswick, N.J.) upon arrival at CRO facility. The test diet containing the compound (I-8) sufficient for approx. 3 kg of diet (i.e. 25 g of 1-8 from the invention), was prepared by adding the test compound to melted, hand warm cocoa butter and mixed for 5 min. This mix was then added to the master mix (containing the rest of the ingredients) and mixed thoroughly. The diet was frozen to −20° C. On the subsequent day, the diet was broken into small pellets (approx 5 g per piece) and freeze dried, and stored in vacuum sealed bags (approx 500 g) at −20° C. until used. This diet was designated D13093002. The diets were refreshed daily and unused diet is discarded. Lomitapide delivered via oral gavage formulation (10 mg/kg once daily) or vehicle was dosed as described in Table 1. The volume of each gavage dose delivered (mL/kg) was based on each individual animal's most recent recorded body weight. […]

In data set [1] the test system is ApoA1 (apolipoprotein A1). Kind of data set: SREBP-1c target gene expression in HepG2 cells (real time PCR): ApoA1. It is filed as cell-based. Conditions: HepG2 cells stimulated with oleate, 50 μM, 6 hours. How it is done: (§1) HepG2 cells (ATCC) were seeded at 20,000 cells per well in 96 well plates. After adhering overnight, growth media (10% FBS in DMEM) was removed and cells were serum starved for 24 hours in DMEM containing 1% fatty acid free bovine serum albumin (BSA, Sigma). […] Cells were incubated for 6 hours and then washed with PBS. RNA was reverse-transcribed using the cells to cDNA reagents according to standard protocols (outlined in Applied Biosystem StepOne Real-time PCR protocols). Real time PCR of transcripts was performed with Taqman assays for the three specific genes FASN (fatty acid synthase), SCD (steroyl CoA desaturase) and ApoA1 (apolipoprotein A1). In all three cases, 18S-VIC® was used as a normalization control.

Data set [2] relates to ApoB secretion in HepG2 cells. Conditions: HepG2 cells, 50, 100 and 200 μM; compared to niacin at 5 mM.
Protocol: HepG2 cells (ATCC) are seeded at 10,000 cells per well in 96 well plates. After adhering overnight, growth media (10% FBS in DMEM) is removed and cells are serum starved for 24 hours in DMEM containing 0.1% fatty acid free bovine serum albumin (BSA, Sigma). Cells are then treated with a compound. […] All treatments are performed in triplicate. Simultaneous with compound treatment, ApoB secretion is stimulated with addition of 0.1 oleate complexed to fatty acid free BSA in a 5:1 molar ratio. Incubation with a compound and oleate is conducted for 24 hours. Media supernatants are removed and ApoB concentrations are measured using ELISA kits (Mabtech AB). Percent inhibition of ApoB secretion is determined by normalizing data to vehicle treated wells. For a given compound, an IC50 (concentration at which 50% of ApoB secretion is inhibited) can also be determined by using a 4 parameter-fit inhibition curve model (Graph Pad Prism®). In each experiment, cell viability is determined using the ATPlite 1-Step kit (Perkin Elmer), such that compound effects due to cytotoxicity can be monitored.
For data set [3], the system named is SCD (steroyl CoA desaturase). As to the kind of experiment: SREBP-1c target gene expression in HepG2 cells (real time PCR): SCD. It is filed as cell-based. Conditions: HepG2 cells stimulated with oleate, 50 μM, 6 hours. How it is done:
as §1

The test system of data set [4] is FASN (fatty acid synthase). As to the kind of experiment: SREBP-1c target gene expression in HepG2 cells (real time PCR): FASN. The format is cell-based. The following applies: HepG2 cells stimulated with oleate, 50 μM, 6 hours. How it is done:
as §1

Data set [5] deals with ApoA1 secretion in HepG2 cultures. Conditions: media supernatants of HepG2 cultures (Jin et al. 1997); cited from earlier work.
Data set [6] has as its system ApoB secretion in HepG2 cultures. The following applies: media supernatants of HepG2 cultures (Jin et al. 1999); cited from earlier work.
Another data set concerns Healthy human volunteers. As to the kind of experiment: Plasma triglycerides in healthy human volunteers after NIH high fat breakfast. The format is in vivo. How it is done:
Healthy human volunteers were divided into 4 treatment groups. The first treatment group was a placebo group (n=6). The other three groups consisted a single oral dose of compound I-8 at either 300 mg (n=6), 1000 mg (n=7) or 2000 mg (n=4). All subjects were given an NIH high fat breakfast in order to induce an elevated level of triglycerides (In a typical NIH high fat breakfast, 450 calories are derived from fat). Compound I-8 was then administered as a single oral dose at the three indicated doses at three different time points: immediately following the high fat meal, 2 hours following the high fat meal and 4 hours following the high fat meal. At each of the time points, plasma triglyceride levels were determined according to standard protocols. […] Based on these dramatic effects on plasma triglycerides levels, compound I-8 and other fatty acid niacin conjugates disclosed in this invention are useful for the treatment of type I hyperlipoproteinemia and type 5 hyperlipoproteinemia.

The subject of another data set is mice. Kind of data set: Liver weight gain induced by Lomitapide 1 and 3 mg/kg in mice on high fat cholesterol diet (second study). The following applies: I-8 0.75% in diet from Day -7 with Lomitapide 1 or 3 mg/kg once daily, Days 1-7. It is filed as in vivo. How it is done: A second study was conducted with a longer predosing of 1-8 (7 days versus 3 days) and lower doses of Lomitapide (1 and 3 mg/kg once daily) as described in Table 2. Starting on Day −7 the animals in Groups 1, 2, and 4 received a high-fat cholesterol diet (D13093001, Research Diets, Inc. New Brunswick, N.J.). Similarly, starting on Day −7 the animals in Groups 3 and 5 received a high-fat cholesterol diet w/0.75% 1-8 (D13093002, Research Diets, Inc.). On day −1 all mice received an oral gavage dose of vehicle. The baseline blood sample were collected from each mouse 90 minutes after the vehicle dose and stored as plasma. The volume of each gavage dose delivered (mL/kg) was based on each individual animal's most recent recorded body weight.
Observations were recorded at least twice daily and at each sample collection time point. The presence or absence of any clinical abnormalities was recorded. Body weights were recorded on Day −7, and daily on Day −1 through Day 7 (AM). Interim blood samples were collected and a terminal blood sample was collected on Day 7 by intracardiac puncture following anesthetization with CO2. Each whole blood sample was transferred into tubes containing sodium heparin anticoagulant and placed on ice until processing. Each whole blood sample was centrifuged at 2200×g for 10 minutes at 5° C.+3° C. to isolate plasma. […]

The subject of a further data set is female APOE*3Leiden mice. As to the kind of experiment: Plasma cholesterol and triglycerides in APOE*3Leiden mice on high cholesterol Western type diet. It is filed as in vivo. The following applies: I-8 0.75% w/w in diet, atorvastatin 0.0015% w/w in diet. How it is done: The study was conducted using female APOE*3Leiden mice (groups of each n=10) and one untreated reference control group on chow (n=5). To induce dyslipidemia, a high cholesterol Western type diet containing 1% cholesterol, 15% cacao butter, 40.5% sucrose and 1% corn oil (WTD) was fed to the mice for a total experimental period of 20 weeks (of which 4 weeks are a run-in period).
The dyslipidemic mice were grouped on the basis of plasma cholesterol at t=0 assayed in 4 h fasting blood. Mice with low cholesterol after the run-in period were excluded so that homogenous experimental groups were obtained. A group of reference mice (n=5) remained on a chow diet during the complete study period (normolipidemic reference mice).
This mix was then added to the master mix (containing the rest of the ingredients) and mixed thoroughly. The diet was frozen to −20° C. On the subsequent day, the diet was broken into small pellets (approx 5 g per piece) and freeze dried, and stored in vacuum sealed bags (approx 500 g) at −20° C. until use. The diets were refreshed daily and unused diet was discarded.
EDTA plasma was collected in weeks −4, 0, 2 and 4 weeks.

Structures are written as SMILES.

`O=C(NC1CCN(CCCCC2(C(=O)NCC(F)(F)F)c3ccccc3-c3ccccc32)CC1)c1ccccc1-c1ccc(C(F)(F)F)cc1` [Lomitapide, reference compound]: the “increase in liver weight” value in the data set with Male C57BL/6 mice (Lomitapide alone 10 mg/kg once daily oral gavage, one week, high fat cholesterol diet) is 15%.

In the case of `CC/C=C\C/C=C\C/C=C\C/C=C\C/C=C\C/C=C\CCC(=O)NCCNC(=O)c1cccnc1` [Compound I-7, N-(2-(4Z,7Z,10Z,13Z,16Z,19Z)-docosa-4,7,10,13,16,19-hexaenamidoethyl)nicotinamide], the ApoA1 gene expression result in data set [1] is recorded as “increase”. In data set [2], the “inhibition of ApoB secretion” value is on record as “significant inhibition”. Also, in [3], the SCD gene expression entry is “statistically significant inhibition”. For the same compound, in data set [4], the FASN gene expression entry is “statistically significant inhibition”.

Regarding `O=C(O)c1cccnc1` [niacin], in data set [5], the “secretion of ApoA1” value is listed as “increase”. The “secretion of ApoB” value in data set [6] is given as “inhibiting”.

Consider `CC/C=C\C/C=C\C/C=C\C/C=C\C/C=C\CCCC(=O)NCCNC(=O)c1cccnc1` [Compound I-8, N-(2-(5Z,8Z,11Z,14Z,17Z)-eicosa-5,8,11,14,17-pentaenamidoethyl)nicotinamide], for which the ApoA1 gene expression result in [1] is on record as “increase”. Also, the reduction in triglycerides result in the data set on Healthy human volunteers (2 hour time point following the high fat meal) and in the data set with Healthy human volunteers (4 hour time point following the high fat meal) was “robust signal was still observed” in each case. The plasma triglycerides result in the data set on Healthy human volunteers (single oral dose 1000 mg, after NIH high fat breakfast) was “significant reduction”; with Healthy human volunteers (single oral dose 2000 mg, after NIH high fat breakfast), “significant reduction”; with female APOE*3Leiden mice (after 4 weeks of treatment), “significant reduction”. In the data set on Healthy human volunteers (single oral dose 300, 1000 or 2000 mg, after NIH high fat breakfast), the “effect on plasma triglycerides” value is on record as “dose-dependent effect”. Besides, in data set [3], the SCD gene expression entry is “statistically significant inhibition”. In addition, the “Lomitapide-increased liver weight on cotreatment” value in the data set on mice is reported as “reduced”; with Male C57BL/6 mice (I-8 0.75% in diet with Lomitapide 10 mg/kg once daily, 7 days), “completely abrogated”. The results for the plasma cholesterol result in the data set with female APOE*3Leiden mice (after 4 weeks of treatment) and with female APOE*3Leiden mice (t=2 weeks of treatment) were “Comparable level of cholesterol reduction” and “statistically significant reduction”, respectively. Moreover, the FASN gene expression result in data set [4] is on record as “statistically significant inhibition”.
